SMILES strings stand for the structures.

T1 sequence (P28845 whole entry): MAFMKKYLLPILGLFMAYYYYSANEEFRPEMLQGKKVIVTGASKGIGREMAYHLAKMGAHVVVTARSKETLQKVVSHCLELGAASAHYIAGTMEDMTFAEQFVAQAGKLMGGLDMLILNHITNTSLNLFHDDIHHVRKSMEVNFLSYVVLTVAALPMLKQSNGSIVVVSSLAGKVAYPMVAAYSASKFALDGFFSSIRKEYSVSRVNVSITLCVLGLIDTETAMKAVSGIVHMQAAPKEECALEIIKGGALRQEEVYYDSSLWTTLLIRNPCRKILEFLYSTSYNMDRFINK

The experiment concerns the target T1, h-11βHSD1 (Homo sapiens, UniProt P28845).
T1 construct: made in house
Put plainly: 11βHSD1 enzyme assay (scintillation proximity assay, 3H-cortisone to 3H-cortisol). Conditions: extract of yeast transformed with h-11βHSD1; 120 nM 3H-cortisone, 4 mM β-NADPH, 60 min at 30° C., SPA. Type of experiment: biochemical. As for the experimental part:
Pharmacological Methods 11βHSD1 Enzyme Assay Materials
^3H-cortisone and anti-rabbit Ig coated scintillation proximity assay (SPA) beads were purchased from Amersham Pharmacia Biotech, β-NADPH was from Sigma and rabbit anti-cortisol antibodies were from Fitzgerald. An extract of yeast transformed with h-11βHSD1 (Hult et al., FEBS Lett, 441, 25 (1998)) was used as the source of enzyme. The test compounds were dissolved in DMSO (10 mM). All dilutions were performed in a buffer containing 50 mM TRIS-HCl (Sigma Chemical Co), 4 mM EDTA (Sigma Chemical Co), 0.1% BSA (Sigma Chemical Co), 0.01% Tween-20 (Sigma Chemical Co) and 0.005% bacitracin (Novo Nordisk A/S), pH=7.4. Optiplate 96 wells plates were supplied by Packard. The amount of ^3H-cortisol bound to the SPA beads was measured on TopCount NXT, Packard.
h-11βHSD1, 120 nM ^3H-cortisone, 4 mM β-NADPH, antibody (1:200), serial dilutions of test compound and SPA particles (2 mg/well) were added to the wells. The reaction was initiated by mixing the different components and was allowed to proceed under shaking for 60 min at 30° C. The reaction was stopped be the addition of 10 fold excess of a stopping buffer containing 500 μM carbenoxolone and 1 μM cortisone. Data was analysed using GraphPad Prism software.
`CC(C)NC(=O)N1CCC(COc2ccc(C(=O)N(C)C3C4CC5CC3CC(O)(C5)C4)cc2)CC1` (centres unmarked) [Example 5f, 4-{4-[(5-Hydroxy-adamantan-2-yl)-methyl-carbamoyl]-phenoxy-methyl}-piperidine-1-carboxylic acid isopropyl-amide]: it took 1800 nM to reach half-maximal inhibition (IC50).
For `O=C(c1ccc(OCC2CCN(S(=O)(=O)c3ccccn3)CC2)cc1)N1CCCC2CCCCC21` (centres unmarked) [Example F, (Octahydro-quinolin-1-yl)-{4-[1-(pyridine-2-sulfonyl)-piperidin-4-ylmethoxy]-phenyl}-methanone], inhibition was half-maximal at 134 nM (IC50).
The result for `O=C(O)C1CCC(Oc2ccc(C(=O)N3CCCC4CCCCC43)cc2)CC1` (centres unmarked) [Example 3a, 4-[4-(Octahydro-quinoline-1-carbonyl)-phenoxy]-cyclohexanecarboxylic acid] reads 405 nM; that for `O=C(NC1C2CC3CC(C2)CC1C3)c1ccc(OC2CCC(COn3cccn3)CC2)cc1` (centres unmarked) [Example 2e, 4-[4-(Pyrazol-1-yl-oxy-methyl)-cyclohexyloxy]-N-adamantan-2-yl-benzamide], 190 nM; that for `O=C(O)c1cccc(S(=O)(=O)N2CCC(COc3ccc(C(=O)N4CCCC5CCCCC54)cc3)CC2)c1` (centres unmarked) [Example 8f, 3-{4-[4-(Octahydro-quinoline-1-carbonyl)-phenoxymethyl]-piperidine-1-sulfonyl}-benzoic acid], 266 nM.
On to `O=C(NC1C2CC3CC(C2)CC1C3)c1ccc(OC2CCC(C(=O)O)CC2)cc1` (mixture of isomers) [Example 4a, Cis/trans 4-[4-adamantan-2-ylcarbamoyl)-phenoxy]-cyclohexanecarboxylic acid], for which the half-maximal inhibitory concentration (IC50) (usually the midpoint of a concentration-inhibition curve) turned out to be 678 nM.
On to `CN(C(=O)c1ccc(OC2CCC(NS(=O)(=O)c3ccccn3)CC2)cc1)C1C2CC3CC1CC(O)(C3)C2` (centres unmarked) [Example 7c, N-(5-Hydroxy-adamantan-2-yl)-N-methyl-4-[4-(pyridine-2-sulfonylamino)-cyclohexyl-oxy]-benzamide], for which the concentration for half-maximal inhibition (IC50) turned out to be 1120 nM.
As for `O=C(O)C1CCC(Oc2ccc(C(=O)N3CC4CCC(CC4)C3)cc2)C1` (centres unmarked) [Example 7a, 3-[4-(3-Aza-bicyclo[3.2.2]-nonane-3-carbonyl)-phenoxy]-cyclopentane-carboxylic acid], the IC50 was 1400 nM.
In turn, `O=C(NC1C2CC3CC(C2)CC1C3)c1ccc(OCC2CCC(O)CC2)cc1` (centres unmarked) [Example 1f, 4-(4-Hydroxy-cyclohexyl-methoxy)-N-adamantan-2-yl-benzamide] returned an IC50 of 465 nM.
With `O=C(c1ccc(O[C@H]2CC[C@@H](NS(=O)(=O)c3ccccn3)CC2)cc1)N1CCCC2CCCCC21` (stereo partly drawn) [Example 4c, Cis-Pyridine-2-sulfonic acid {4-[4-(octahydro-quinoline-1-carbonyl)-phenoxy]-cyclo-hexyl}-amide] the figure was 51 nM.
For `CC(C)(C)OC(=O)N1C[C@@H]2CC1CN2c1ccc(C(=O)N2CC3CCC(CC3)C2)cc1` (stereo in doubt) [Example 1h, (1S,4S)-5-[4-(3-Aza-bicyclo[3.2.2]nonane-3-carbonyl)-phenyl]-2,5-diaza-bicyclo[2.2.1]heptane-2-carboxylic acid tert-butyl ester], inhibition was half-maximal at 389 nM (IC50).
For `O=C(c1ccc(OC2CCN(C(=O)C3CC3)CC2)cc1)N1CC2CCC(CC2)C1` [Example B, (3-Aza-bicyclo[3.2.2]non-3-yl)-[4-(1-cyclopropane-carbonyl-piperidin-4-yloxy)-phenyl]-methanone], the IC50 turned out to be 1350 nM.
Compound `CC1(C)CC2CC(C)(CN2C(=O)c2ccc(OC3CCC(C(=O)O)CC3)cc2)C1` (centres unmarked) [Example A, 4-[4-(1,3,3-Trimethyl-6-aza-bicyclo[3.2.1]octane-6-carbonyl)-phenoxy]cyclohexanecarboxylic acid] returned an IC50 of 360 nM.
As to `O=C(O)c1ccc(OCC2CCC(Oc3ccc(C(=O)NC4C5CC6CC(C5)CC4C6)cc3)CC2)cc1` (centres unmarked) [Example 3e, 4-{4-[4-(Adamantan-2-yl-carbamoyl)-phenoxy]-cyclo-hexylmethoxy}-benzoic acid], the IC50 stood at 300 nM.
`O=C(O)C1CCC(Oc2ccc(C(=O)N3CC4CCC(CC4)C3)cc2)CC1` (centres unmarked) [Example 2a, 4-[4-(3-Aza-bicyclo[3.2.2]-nonane-3-carbonyl)-phen-oxy]-cyclohexane carbox-ylic acid]: the IC50 turned out to be 1450 nM.
The compound `O=C(NC1C2CC3CC(C2)CC1C3)c1ccc(OC2CCC(COc3ccccn3)CC2)cc1` (centres unmarked) [Example E, 4-[4-(Pyridin-2-yl-oxy-methyl)-cyclohexyloxy]-N-adamantan-2-yl-benzamide] displayed an IC50 of 295 nM.
`CN(C(=O)c1ccc(OCC2CCN(S(=O)(=O)c3ccccn3)CC2)cc1)C1C2CC3CC1CC(O)(C3)C2` (centres unmarked) [Example 4f, N-(5-Hydroxy-adamantan-2-yl)-N-methyl-4-[1-(pyridine-2-sulfonyl)-piperidin-4-yl-methoxy]-benzamide]: the IC50 came to 1360 nM.
For the compound `C=CCOC(=O)c1ccc(OCC2CCC(Oc3ccc(C(=O)NC4C5CC6CC(C5)CC4C6)cc3)CC2)cc1` (centres unmarked) [Example 4e, 4-{4-[4-(Adamantan-2-yl-carbamoyl)-phenoxy]-cyclo-hexylmethoxy}-benzoic acid allyl ester], the IC50 came to 482 nM.
`O=C(NC1C2CC3CC(C2)CC1C3)c1ccc(OC2CCC(O)CC2)cc1` (centres unmarked) [Example 1d, N-Adamantan-2-yl-4-(4-hydroxy-cyclohexyloxy)-benzamide] returned an IC50 of 75 nM.
On to `CN(C(=O)c1ccc(OC2CCC(NC(=O)C3CC3)CC2)cc1)C1C2CC3CC1CC(O)(C3)C2` (centres unmarked) [Example 8c, 4-[4-(Cyclopropanecarbonyl-amino)-cyclohexyloxy]-N-(5-hydroxy-adamantan-2-yl)-N-methyl-benzamide], for which the IC50 came out at 1650 nM.
With `O=C(NC1C2CC3CC(C2)CC1C3)c1ccc(O[C@H]2CC[C@@H](NC(=O)C3CC3)CC2)cc1` (stereo partly drawn) [Example 5c, Cis-N-Adamantan-2-yl-4-[4-(cyclopropanecarbonyl-amino)-cyclohexyloxy]-benzamide], half-maximal inhibition (IC50) was put at 158 nM.
With `Cc1c[nH]c(SCC2CCC(Oc3ccc(C(=O)NC4C5CC6CC(C5)CC4C6)cc3)CC2)n1` (centres unmarked) [Example 1e, N-Adamantan-2-yl-4-[4-(4-methyl-1H-imidazol-2-yl-sulfanylmethyl)-cyclo-hexyloxy]-benzamide], it took 190 nM to reach half-maximal inhibition (IC50).
`CN(C(=O)c1ccc(OCC2CCN(S(=O)(=O)c3cn(C)cn3)CC2)cc1)C1C2CC3CC1CC(O)(C3)C2` (centres unmarked) [Example 6f, N-(5-Hydroxy-adamantan-2-yl)-N-methyl-4-[1-(1-methyl-1H-imidazole-4-sulfonyl)-piperidin-4-ylmethoxy]-benzamide] had an IC50 of 2270 nM.
As to `CCOC(=O)C1CCC(Oc2ccc(C(=O)N3CC4(C)CC3CC(C)(C)C4)cc2)CC1` (centres unmarked) [Example 1a, 4-[4-(1,3,3-Trimethyl-6-aza-bicyclo[3.2.1]octane-6-carbonyl)-phenoxy]-cyclo-hexanecarboxylic acid ethyl ester], the IC50 stood at 130 nM.
In turn, `CC1(C)CC2CC(C)(CN2C(=O)c2ccc(O[C@H]3CC[C@H](C(=O)O)CC3)cc2)C1` (stereo partly drawn) [Example 6a, Trans-4-{4-(1,3,3-trimethyl-6-aza-bicyclo [3.2.1]oct-ane6-carbonyl)-phenoxy]-cyclo-hexanecarboxylic acid] gave an IC50 of 1200 nM.
For the compound `CCS(=O)(=O)N1CCC(COc2ccc(C(=O)N(C)C3C4CC5CC3CC(O)(C5)C4)cc2)CC1` (centres unmarked) [Example 7f, 4-(1-Ethanesulfonyl-piperidin-4-ylmethoxy)-N-(5-hydroxy-adamantan-2-yl)-N-methyl-benzamide], the IC50 turned out to be 2180 nM.
The compound `CCS(=O)(=O)N1CCC(COc2ccc(C(=O)N3CCCC4CCCCC43)cc2)CC1` (centres unmarked) [Example 3f, [4-(1-Ethanesulfonyl-piperidin-4-yl-methoxy)-phenyl]-(octahydro-quinolin-1-yl)-methanone] had an IC50 of 271 nM.
As to `O=C(NC1C2CC3CC(C2)CC1C3)c1ccc(OC2CCC(On3cccn3)CC2)cc1` (centres unmarked) [Example 2d, 4-[4-(Pyrazol-1-yloxy)-cyclohexyloxy]-N-adaman-tan-2-yl-benzamide], 180 nM corresponded to half-maximal inhibition (IC50).
For the compound `O=C(NC1C2CC3CC(C2)CC1C3)c1ccc(N2[C@@H]3CC[C@H]2CC(Oc2ccccn2)C3)cc1` (stereo partly drawn) [Example 3h, 4-[(1S,5R)-3-(Pyridin-2-yloxy)-8-aza-bicyclo[3.2.1]oct-8-yl]-N-adamantan-2-yl-benzamide], the half-inhibitory concentration (IC50) was determined as 976 nM.
Compound `O=C(NC1CCC(Oc2ccc(C(=O)N3C4CCC3CC(O)C4)cc2)CC1)C1CC1` (centres unmarked) [Example C, Cyclopropanecarboxylic acid {4-[4-(3-hydroxy-8-aza-bicyclo[3.2.1]octane-8-carbonyl)-phenoxy]-cyclohexyl}-amide] came in with an IC50 of 1070 nM.
As for `O=C(c1ccc(OC2CCN(C(=O)c3ccc(Cl)nc3)C2)cc1)N1CC2CCC(CC2)C1` (centres unmarked) [Example G, {3-[4-(3-Aza-bicyclo[3.2.2]nonane-3-carbonyl)-phenoxy]-pyrrolidin-1-yl}-(6-chloro-pyridin-3-yl)-methanone], the 50% inhibitory concentration (IC50) came to 1180 nM.
Compound `CC1(C)CC2CC(C)(CN2C(=O)c2ccc(O[C@H]3CC[C@@H](C(=O)O)CC3)cc2)C1` (stereo partly drawn) [Example 5a, Cis-4-[4-(1,3,3-trimethyl-6-aza-bicyclo [3.2.1]octane-6-carbonyl)-phenoxy]-cyclo-hexanecarboxylic acid] returned an IC50 of 588 nM.
